Legend:
[1] = system: rat primary septal neuron culture; assay: Measurement of acetylcholine (ACh) release in the rat primary septal neuron culture system in the presence of NGF; type: cell-based; conditions: rat primary septal neurons, with NGF, one day after compound addition, ACh by HPLC
Source text: Measurement of acetylcholine (ACh) release in the rat primary septal neuron culture system in the presence of NGF
(1) Rat Primary Septal Neuron Culture
The septal area was isolated from Sprague-Dawley (SD) rats (Charles River Laboratories Japan, Inc.) at a fetal age of 18 days, and cultured.
Specifically, fetuses were aseptically removed from pregnant rats under isoflurane anesthesia. The brain was extracted from each fetus, and immersed in ice-cooled L-15 medium (11415-064, Thermo Fisher Scientific). The septal area was dissected from the extracted brain under a stereoscopic microscope. The dissected septal area was subjected to enzyme treatment in an enzyme solution containing 0.25% trypsin (15050-065, Thermo Fisher Scientific) and 0.01% DNase (D5025-150KU, Sigma) at 37° C. for 30 minutes, thereby dispersing the cells. In this case, the enzyme reaction was terminated by adding inactivated horse serum (26050-088, Thermo Fisher Scientific). The enzyme-treated solution was centrifuged at 1000 rpm for 3 minutes, and the supernatant was removed. A medium in an amount of 10 mL was added to the obtained cell mass. The medium used was Dulbecco's Modified Eagle's Medium (044-29765, WAKO) supplemented with N2 supplement (17502-048, Thermo Fisher Scientific), 1 mM sodium pyruvate (11360-070, Thermo Fisher Scientific), and Penicillin-Streptomycin (15140-1221, Thermo Fisher Scientific). The cells of the cell mass to which the medium was added were redispersed by gentle pipetting, and then centrifuged again at 1000 rpm for 3 minutes, and the supernatant was removed. The medium in an amount of 10 mL was added to the obtained cell mass, and the cell dispersion was filtered through a 40-μm nylon mesh (Cell Strainer) to remove the cell mass, thereby obtaining a neuronal cell suspension. The neuronal cell suspension was diluted with the medium, and 10% inactivated bovine serum (26140-079, Thermo Fisher Scientific) and 10% inactivated horse serum were added. Thereafter, 100 μL/well of the suspension was seeded in a 96-well plate (354461, CORNING) pre-coated with poly-D-lysine so that the initial culture density was 1.4×10^5 cells/cm^2. After the seeded cells were cultured under 5% CO2-95% air in a 37° C. incubator for 2 days, the entire medium was replaced with 120 μL of fresh medium, and the cells were subsequently cultured for 5 days.
On the 7th day of culture, compound was added in the following manner. A solution of the test compound in DMSO was diluted with the medium so that the concentration was 10 times higher than the final concentration. NGF (450-01, PEPRO TECH, INC.) was prepared at 0.3 ng/mL. These two solutions were added each in an amount of 15 μL/well, and the mixture was mixed well. The final DMSO concentration was 0.1% or less. Moreover, only DMSO and NGF were added to the control group.
(3) ACh Release Measurement
One day after compound addition, an amount of ACh release was measured by HPLC in the following manner. A warmed buffer was added at 100 μL/well to the well after the medium was eliminated, and the buffer was immediately removed. Thereafter, a buffer to which 10 μm choline, 10 μm physostigmine, and 6 mM KCl were added was added at 120 μL/well. The buffer was prepared by adding 125 mM NaCl, 25 mM 4-(2-hydroxyethyl)-1-piperazineethanesulfonic acid, 1.2 mM KH2PO4, 1.2 mM MgSO4, 2.2 mM CaCl2 (2H2O), and 10 mM glucose to sterilized water, and the final pH of the solution was set to 7.4. After the 96-well plate to which the buffer was added was incubated under 5% CO2-95% air in a 37° C. incubator for 40 minutes, 80 μL of buffer was collected. An internal standard solution IPHC (5×10^−7 M) was added in an amount of 6 μL to the collected buffer, and the buffer was transferred to a tube for HPLC measurement and subjected to HPLC measurement. […]

[2] = system: Choline Acetyltransferase (ChAT) mRNA; assay: Measurement of choline acetyltransferase (ChAT) mRNA expression levels in the rat septal area; type: in vivo; conditions: SD rat medial septum, 24 hours after administration, qPCR
Procedure: Measurement of Choline Acetyltransferase (ChAT) mRNA Expression Levels in the Rat Septal Area
(1) Compound Administration
In this study, SD male rats (Charles River Laboratories Japan, Inc.) with a body weight of about 250 to 350 g were used. The compound was dissolved in 0.01 mol/L hydrochloric acid, and orally administered.
At 24 hours after the administration of the compound, the whole brain tissue was collected under pentobarbital anesthesia. The medial septum was isolated from whole brain on ice and frozen with liquid nitrogen, and then stored at −80° C.
(3) Measurement of ChAT mRNA Expression Levels
For RNA purification, RNeasy Plus Mini Kit (#74136: QIAGEN) was used in this study. RNA purification was performed by the method described in the kit. After RNA purification, the total RNA concentration was measured by using QIAxpert Instrument (QIAGEN). cDNA was synthesized using SuperScript® VILO™ cDNA Synthesis Kit (#11754: Thermo Fisher Scientific). The synthesis of cDNA was performed by the method described in the kit. The synthesized cDNA was diluted 4 times with RNase free water, and the diluted cDNA solution was used as a sample. Taqman Universal PCR Master Mix (#4304437: Thermo Fisher Scientific), Taqman® Gene Expression Assays, INVENTORIED (#4331182: Thermo Fisher Scientific), RNase free water, and the cDNA solution were mixed in amounts of 10 μl, 1 μl, 4 μl, and 5 μl, respectively, and the resulting mixture was used as a measurement sample solution. Quantitative polymerase chain reaction (qPCR) was conducted using ABI PRISM® 7900HT (Thermo Fisher Scientific) by a fluorescence probe method. Analysis was performed by SDS 2.4 (Thermo Fisher Scientific). The results were calculated by the percentage of the amount of ChAT mRNA expression levels in the compound administration group increased from the amount of ChAT mRNA expression levels in the vehicle administration group.

| Structure (SMILES) | Concentration (μM) showing a 20% or more increase from the amount of ACh in the control group [1] | Amount (%) increased from the amount of ChAT mRNA expression levels in the vehicle administration group ([2]; oral 10 mg/kg) | Amount (%) increased from the amount of ChAT mRNA expression levels in the vehicle administration group ([2]; oral 3 mg/kg) |
| --- | --- | --- | --- |
| CN1CCc2c(sc3nc4n(c(=O)c23)[C@H]2CCC[C@@H]2C(=O)N(C)C4)C1 [Example 6, (3aS,14aS)-5,10-dimethyl-3,3a,5,6,9,10,11,12-octahydro-H-cyclopenta[f]pyrido[4″,3″:4′,5′]thieno[2′,3′:4,5]pyrimido[1,2-a][1,4]diazepine-4,13(2H,14aH)-dione] | 0.03 µM | 32.0% |  |
| CN1CCc2c(sc3nc4n(c(=O)c23)[C@@H]2CCC[C@@H]2C(=O)N(C)C4)C1 [Example 4, (3aS,14aR)-5,10-dimethyl-3,3a,5,6,9,10,11,12-octahydro-1H-cyclopenta[f]pyrido[4″,3″:4′,5′]thieno[2′,3′:4,5]pyrimido[1,2-a][1,4]diazepine-4,13(2H,14aH)-dione] | 0.1 µM | 42.4% |  |
| CN1CCc2c(sc3nc4n(c(=O)c23)[C@@H]2CCC[C@H]2C(=O)N(C)C4)C1 [Example 5, (3aR,14aR)-5,10-dimethyl-3,3a,5,6,9,10,11,12-octahydro-1H-cyclopenta[f]pyrido[4″,3″:4′ 5′]thieno[2′,3′:4,5]pyrimido[1,2-a][1,4]diazepine-4,13(2H,14aH)-dione] | 0.1 µM |  | 33.6% |
| CN1CCc2c(sc3nc4n(c(=O)c23)-c2ccsc2C(=O)N(C)C4)C1 [Example 2, 5,10-dimethyl-5,6,9,10,11,12-hexahydropyrido[4″,3″:4′,5′]thieno[2′,3′:4,5]pyrimido[1,2-a]thieno[2,3-f][1,4]diazepine-4,13-dione] | 0.1 µM |  | 38.0% |
